US12686665B2, “Bicyclic fused ring derivative or salt thereof and pharmaceutical composition comprising same” (YUHAN CORPORATION, priority 2021, dated 2026)
Where a name gives a salt, the structure may show the parent alone.

What was measured:
Type in all cases: biochemical
[1] = biological target: T1, recombinant human Lysyl Oxidase-Like 2 (LOXL2) (Homo sapiens, UniProt Q9Y4K0); experiment: Amplex Red HRP-coupled amine oxidase assay, recombinant human LOXL2; details: 60 min incubation with enzyme at 37° C., putrescine substrate, read-out: Inhibitory activity (IC50, nM) human LOXL2
T1 construct: purchased R&D systems
T1 sequence (Q9Y4K0 26-774): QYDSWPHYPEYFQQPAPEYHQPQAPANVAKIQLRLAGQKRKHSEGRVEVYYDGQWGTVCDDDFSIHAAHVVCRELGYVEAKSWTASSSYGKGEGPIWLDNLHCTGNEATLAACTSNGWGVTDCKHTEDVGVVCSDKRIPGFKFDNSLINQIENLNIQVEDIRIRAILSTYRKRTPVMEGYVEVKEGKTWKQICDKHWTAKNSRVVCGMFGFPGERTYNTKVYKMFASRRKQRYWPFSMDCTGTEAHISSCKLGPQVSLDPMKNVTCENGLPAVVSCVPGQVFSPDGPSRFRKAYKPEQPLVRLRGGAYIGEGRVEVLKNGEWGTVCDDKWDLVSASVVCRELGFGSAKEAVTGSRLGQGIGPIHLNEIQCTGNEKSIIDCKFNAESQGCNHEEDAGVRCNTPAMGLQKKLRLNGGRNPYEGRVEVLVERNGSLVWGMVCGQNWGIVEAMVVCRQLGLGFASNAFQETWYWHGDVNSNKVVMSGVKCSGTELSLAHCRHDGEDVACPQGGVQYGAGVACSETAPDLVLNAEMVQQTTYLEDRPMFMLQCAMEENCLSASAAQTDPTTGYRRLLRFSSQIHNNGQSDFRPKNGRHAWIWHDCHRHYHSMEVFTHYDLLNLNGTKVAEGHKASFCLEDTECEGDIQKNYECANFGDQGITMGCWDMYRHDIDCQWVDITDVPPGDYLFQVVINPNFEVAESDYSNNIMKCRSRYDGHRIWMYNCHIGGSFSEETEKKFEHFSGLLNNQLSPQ
Method in brief: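 Putrescine substrate (30 mM) in 50 mM sodium phosphate pH 7.4, 37 °C; compounds preincubated 60 min with enzyme, 1% DMSO final, six-point curves. H2O2 detected via 400 μM Amplex Red/2 U/mL HRP, fluorescence (ex 530/em 590 nm) after 1 h; IC50 from four-parameter logistic fit of % signal reduction.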

[2] = biological target: T2, recombinant human MAO-A (monoamine oxidase-A) (Homo sapiens, UniProt P21397); experiment: Amplex Red HRP-coupled amine oxidase assay, recombinant human MAO-A; details: 0.5 mM tyramine substrate, read-out: Inhibitory activity (IC50, nM) MAO-A
T2 construct: purchased Sigma-Aldrich
T2 sequence (P21397 1-527): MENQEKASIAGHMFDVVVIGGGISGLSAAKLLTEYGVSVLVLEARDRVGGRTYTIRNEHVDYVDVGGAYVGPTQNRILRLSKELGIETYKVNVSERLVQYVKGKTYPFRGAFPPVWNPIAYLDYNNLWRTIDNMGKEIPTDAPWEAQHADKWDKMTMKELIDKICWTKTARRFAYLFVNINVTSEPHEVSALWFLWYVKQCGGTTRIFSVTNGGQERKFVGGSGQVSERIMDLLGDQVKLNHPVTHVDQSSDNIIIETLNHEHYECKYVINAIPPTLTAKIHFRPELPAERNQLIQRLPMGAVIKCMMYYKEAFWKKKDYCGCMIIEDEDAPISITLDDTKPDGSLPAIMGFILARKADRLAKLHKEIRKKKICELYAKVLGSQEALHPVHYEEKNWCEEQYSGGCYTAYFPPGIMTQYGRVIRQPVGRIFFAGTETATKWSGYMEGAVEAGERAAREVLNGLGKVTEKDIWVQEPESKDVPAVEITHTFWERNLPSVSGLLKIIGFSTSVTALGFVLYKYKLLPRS
Method: (§1) The activities of the compounds according to the present invention against recombinant human Lysyl Oxidase-Like 2 (recombinant human LOXL2, R&D systems) were evaluated by measuring the levels of hydrogen peroxide in the HRP (horseradish peroxidase) coupled reactions, with the Amplex Red Hydrogen Peroxide Assay Kit (Molecular Probes, Invitrogen, USA). The tests were carried out at 37° C., and putrescine was used as a substrate. In the HRP coupling reaction, the oxidation of 10-acetyl-3,7-dihydroxyphenoxazine (Amplex Red reagent) by hydrogen peroxide generates a fluorescent product, i.e., resorufin. Briefly, the test compounds were dissolved in dimethyl sulfoxide (DMSO) at a concentration of 20 mM. Dose-response measurements were carried out by serial dilutions in DMSO to generate a six-point curve. The upper concentration was adjusted according to the potency of the compound, and then diluted with the reaction buffer to obtain a final DMSO concentration of 1%. Purified human LOXL2 in 50 mM sodium phosphate buffer (pH7.4) was added to each well of a 96 well black plate. The test compounds dissolved in DMSO were incubated with the human LOXL2 enzyme at 37° C. for 60 minutes. After the incubation for 60 minutes, a reaction mixture containing 400 μM Amplex Red reagent, 30 mM putrescine, and 2 U/mL HRP in 50 mM sodium phosphate buffer (pH 7.4) was added to each well. Fluorescence was measured with a microplate reader (Flexstation3, Molecular Devices), under the conditions of excitation at 530 nm and emission at 590 nm, 1 hour after the addition of the mixture. Inhibition by each compound was measured as % reduction in signal, compared to the control without an inhibitor (diluted DMSO only). The data were fixed to a four-variable logistic model, and […] values were calculated using the GraphPad Prism program.
(§2) And, the activities of the compounds according to the present invention against recombinant human MAO-A (monoamine oxidase-A, Sigma-Aldrich) and recombinant human MAO-B (monoamine oxidase-B, Sigma-Aldrich) were evaluated in a similar manner to the activity evaluation method for recombinant human LOXL2, using 0.5 mM tyramine and 1 mM benzylamine as a substrate, respectively. In addition, the activities of the compounds according to the present invention against recombinant human DAO (diamine oxidase, R&D systems) were evaluated in a similar manner to the activity evaluation method for recombinant human LOXL2, using 1 mM putrescine as a substrate.

[3] = biological target: T3, recombinant human MAO-B (monoamine oxidase-B) (Homo sapiens, UniProt P27338); experiment: Amplex Red HRP-coupled amine oxidase assay, recombinant human MAO-B; details: 1 mM benzylamine substrate, read-out: Inhibitory activity (IC50, nM) MAO-B
T3 construct: purchased Sigma-Aldrich
T3 sequence (P27338 1-520): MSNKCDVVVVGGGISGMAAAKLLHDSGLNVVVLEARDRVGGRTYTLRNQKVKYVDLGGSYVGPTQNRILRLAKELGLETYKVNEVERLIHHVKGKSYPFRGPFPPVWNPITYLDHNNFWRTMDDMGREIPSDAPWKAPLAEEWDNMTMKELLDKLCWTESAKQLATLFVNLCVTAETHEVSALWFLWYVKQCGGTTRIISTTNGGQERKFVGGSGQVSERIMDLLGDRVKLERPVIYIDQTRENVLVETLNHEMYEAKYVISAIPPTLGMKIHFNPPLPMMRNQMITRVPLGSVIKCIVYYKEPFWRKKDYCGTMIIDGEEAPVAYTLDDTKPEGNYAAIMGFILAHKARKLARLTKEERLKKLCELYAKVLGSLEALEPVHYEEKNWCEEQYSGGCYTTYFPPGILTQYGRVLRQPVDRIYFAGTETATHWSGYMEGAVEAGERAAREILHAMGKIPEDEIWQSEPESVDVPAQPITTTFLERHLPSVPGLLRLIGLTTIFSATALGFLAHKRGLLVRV
Method: as §1, §2

[4] = biological target: T4, recombinant human DAO (diamine oxidase) (Homo sapiens, UniProt P19801); experiment: Amplex Red HRP-coupled amine oxidase assay, recombinant human DAO; details: 1 mM putrescine substrate, read-out: Inhibitory activity (IC50, nM) DAO
T4 construct: purchased R&D systems
T4 sequence (P19801 20-751): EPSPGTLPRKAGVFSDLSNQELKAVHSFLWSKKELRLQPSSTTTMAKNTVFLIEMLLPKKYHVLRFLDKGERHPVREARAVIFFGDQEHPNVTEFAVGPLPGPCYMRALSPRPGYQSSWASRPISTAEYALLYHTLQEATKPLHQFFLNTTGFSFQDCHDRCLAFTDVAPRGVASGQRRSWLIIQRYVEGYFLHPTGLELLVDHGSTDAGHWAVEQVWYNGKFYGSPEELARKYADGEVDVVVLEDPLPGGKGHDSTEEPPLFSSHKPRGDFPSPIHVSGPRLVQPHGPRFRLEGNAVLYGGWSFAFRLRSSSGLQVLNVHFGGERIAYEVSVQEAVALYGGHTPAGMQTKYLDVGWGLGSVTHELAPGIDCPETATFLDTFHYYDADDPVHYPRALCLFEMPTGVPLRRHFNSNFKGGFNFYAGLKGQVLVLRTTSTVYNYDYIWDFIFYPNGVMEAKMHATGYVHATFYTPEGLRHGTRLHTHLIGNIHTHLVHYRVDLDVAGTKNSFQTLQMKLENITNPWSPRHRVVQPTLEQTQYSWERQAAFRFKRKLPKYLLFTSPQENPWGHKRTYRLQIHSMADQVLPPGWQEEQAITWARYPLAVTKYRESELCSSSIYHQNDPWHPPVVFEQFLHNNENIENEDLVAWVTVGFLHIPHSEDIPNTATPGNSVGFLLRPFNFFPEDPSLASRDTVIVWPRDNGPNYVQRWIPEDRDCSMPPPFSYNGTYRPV
Method: as §1, §2

Row | SMILES | IC50 [1] [nM] | IC50 [2] [nM] | IC50 [3] [nM] | IC50 [4] [nM]
1 | NC/C=C(\F)Cn1cnc2c(-c3cccc(S(=O)(=O)NC4CC4)c3)cc(F)cc21 [Example 9, (Z)-3-(1-(4-amino-2-fluorobut-2-en-1-yl)-6-fluoro-1H-benzo[d]imidazol-4-yl)-N-cyclopropylbenzenesulfonamide hydrochloride] | 39 | 48600 | > 100000 | 3100
2 | CNS(=O)(=O)c1cccc(-c2cc(F)cc3c2ncn3C/C(F)=C/CN)c1 [Example 10, (Z)-3-(1-(4-amino-2-fluorobut-2-en-1-yl)-6-fluoro-1H-benzo[d]imidazol-4-yl)-N-methylbenzenesulfonamide hydrochloride] | 22 | 65500 | > 100000 | 3920
3 | CS(=O)(=O)c1cccc(-c2cc(C(F)(F)F)cc3c2ncn3C/C(F)=C/CN)c1 [Example 13, (Z)-3-fluoro-4-(4-(3-(methylsulfonyl)phenyl)-6-(trifluoromethyl)-1H-benzo[d]imidazol-1-yl) but-2-en-1-amine hydrochloride] | 104 | > 100000 | > 100000 | > 100000
4 | CNS(=O)(=O)c1cccc(-c2cc(C(F)(F)F)cc3c2ncn3C/C(F)=C/CN)c1 [Example 20, (Z)-3-(1-(4-amino-2-fluorobut-2-en-1-yl)-6-(trifluoromethyl)-1H-benzo[d]imidazol-4-yl)-N-methylbenzenesulfonamide hydrochloride] | 77 | > 100000 | > 100000 | > 100000
5 | COC(=O)c1cc(-c2ccc(OC)c(S(=O)(=O)N(C)C)c2)c2ncn(C/C(F)=C/CN)c2c1 [Example 21, methyl (Z)-1-(4-amino-2-fluorobut-2-en-1-yl)-4-(3-(N,N-dimethylsulfamoyl)-4-methoxyphenyl)-1H-benzo[d]imidazol-6-carboxylate hydrochloride] | 22.7 | 12200 | > 100000 | 380
6 | COC(=O)c1cc(-c2cccc(S(=O)(=O)N3CCC(F)(F)C3)c2)c2ncn(C/C(F)=C/CN)c2c1 [Example 22, methyl (Z)-1-(4-amino-2-fluorobut-2-en-1-yl)-4-(3-((3,3-difluoropyrrolidine-1-yl)sulfonyl)phenyl)-1H-benzo[d]imidazol-6-carboxylate hydrochloride] | 19.9 | 53300 | > 100000 | 5070
7 | COC(=O)c1cc(-c2cccc(S(=O)(=O)N3CCCC3)c2)c2ncn(C/C(F)=C/CN)c2c1 [Example 23, methyl (Z)-1-(4-amino-2-fluorobut-2-en-1-yl)-4-(3-(pyrrolidin-1-ylsulfonyl)phenyl)-1H-benzo[d]imidazol-6-carboxylate hydrochloride] | 16.7 | > 100000 | > 100000 | 986
8 | CNS(=O)(=O)c1ccc(OC)c(-c2cc(C(=O)OC)cc3c2ncn3C/C(F)=C/CN)c1 [Example 24, methyl (Z)-1-(4-amino-2-fluorobut-2-en-1-yl)-4-(2-methoxy-5-(N-methylsulfamoyl)phenyl)-1H-benzo[d]imidazol-6-carboxylate hydrochloride] | 15.9 | > 100000 | > 100000 | 21800
9 | COC(=O)c1cc(-c2cccc(S(C)(=O)=O)c2)c2ncn(C/C(F)=C/CN)c2c1 [Example 25, methyl (Z)-1-(4-amino-2-fluorobut-2-en-1-yl)-4-(3-(methylsulfonyl)phenyl)-1H-benzo[d]imidazol-6-carboxylate hydrochloride] | 22.7 | > 100000 | > 100000 | 1230
10 | COC(=O)c1cc(-c2cc(S(=O)(=O)NC3CC3)ccc2OC)c2ncn(C/C(F)=C/CN)c2c1 [Example 27, methyl (Z)-1-(4-amino-2-fluorobut-2-en-1-yl)-4-(5-(N-cyclopropylsulfamoyl)-2-methoxyphenyl)-1H-benzo[d]imidazol-6-carboxylate hydrochloride] | 31.3 | 45700 | > 100000 | 16100
